The test system of this test is intracellular HBV DNA. Briefly: Real-time PCR for intracellular HBV DNA in HepAD38 cells. In kind it is cell-based. To be noted: 65 hours treatment. As to the method:
HepAD38 cells were cultured in DMEM medium (Welgene) supplemented with 200 unit/mL penicillin, 200 μg/mL streptomycin, and 10% FBS. During maintenance and passage, the cells were cultured together with 0.4 μg/mL tetracycline. Two days before the treatment with compounds for inducing HBV replication was started, the medium was replaced with a tetracycline-free complete growth medium. […]
HepAD38 cells were treated with a compound for 65 hours and then recovered, and intracellular HBV DNA was extracted therefrom according to the protocol in the DNeasy Blood & Tissue Kit (Qiagen). The primers and probes used to quantify HBV DNA were 5′-[…]-3′, 5′-[…]-3′, and 5′-/56-FAM/TGT CCT GGT/ZEN/TAT CGC TGG ATG TGT CT/3IABkFQ/-3′. The HBV DNA was amplified by real-time PCR assay using LightCycler 480 (Roche) (J. Virol., 2018, 92(16):e00339-18). All of the processes were confirmed in duplicate.

Where [1] appears, read: Hepatitis B virus, HePAD38, 65 h.

The source of these data is US20250009742A1 (priority 2021, published 2025).

Where two headings read alike, the source gives them in different places.

As for “3-(6-fluoropyridin-3-yl)-1-(2-methoxypyrimidin-5-yl)-1-((5-(trifluoromethyl)-1H-pyrazol-3-yl)methyl)urea [Example 184]”, the IC50 (read-out: IC50) worked out at 250 nM.

`COc1ncc(N(Cc2cc(C(F)(F)F)[nH]n2)C(=O)NC23CC(C2)C3)cn1` [Example 1, 3-(bicyclo[1.1.1]pentan-1-yl)-1-(2-methoxypyrimidin-5-yl)-1-((5-(trifluoromethyl)-1H-pyrazol-3-yl)methyl)urea] yielded an IC50 under setting [1] greater than 1100 nM.

Take `COc1ncc(N(Cc2cc(C(F)(F)F)[nH]n2)C(=O)Nc2cncnc2)cn1` [Example 2, 1-(2-methoxypyrimidin-5-yl)-3-(pyrimidin-5-yl)-1-((5-(trifluoromethyl)-1H-pyrazol-3-yl)methyl)urea]: under setting [1], the IC50 was greater than 1100 nM.

Under setting [1], `COc1ncc(N(Cc2cc(C(F)(F)F)[nH]n2)C(=O)Nc2ccnc(Br)c2F)cn1` [Example 4, 3-(2-bromo-3-fluoropyridin-4-yl)-1-(2-methoxypyrimidin-5-yl)-1-((5-(trifluoromethyl)-1H-pyrazol-3-yl)methyl)urea] gave an IC50 of 21 nM.

Under setting [1], `COc1ncc(N(Cc2cc(C(F)(F)F)[nH]n2)C(=O)Nc2cccc(Cl)n2)cn1` [Example 5, 3-(6-chloropyridin-2-yl)-1-(2-methoxypyrimidin-5-yl)-1-((5-(trifluoromethyl)-1H-pyrazol-3-yl)methyl)urea] yielded an IC50 of 380 nM.

For `COc1ncc(N(Cc2cc(C(F)(F)F)[nH]n2)C(=O)Nc2ccc(Cl)c(C#N)n2)cn1` [Example 8, 3-(5-chloro-6-cyanopyridin-2-yl)-1-(2-methoxypyrimidin-5-yl)-1-((5-(trifluoromethyl)-1H-pyrazol-3-yl)methyl)urea], the IC50 under setting [1] was greater than 1100 nM.

For the compound `COc1ncc(N(Cc2cc(C(F)(F)F)[nH]n2)C(=O)Nc2cc(F)c(F)c(Cl)c2)cn1` [Example 11, 3-(3-chloro-4,5-difluorophenyl)-1-(2-methoxypyrimidin-5-yl)-1-((5-(trifluoromethyl)-1H-pyrazol-3-yl)methyl)urea], the IC50 under setting [1] is 10 nM.

For the compound `COc1ncc(N(Cc2cc(C(F)F)[nH]n2)C(=O)Nc2cc(F)c(F)c(Cl)c2)cn1` [Example 12, 3-(3-chloro-4,5-difluorophenyl)-1-((5-(difluoromethyl)-1H-pyrazol-3-yl)methyl)-1-(2-methoxypyrimidin-5-yl)urea], under setting [1], 45 nM corresponded to half-maximal inhibition (IC50).

Turning to `CC(=O)c1cc(N(Cc2n[nH]c3c2CCOC3)C(=O)Nc2ccc(F)c(Cl)c2)ccn1` [Example 22, 1-(2-acetylpyridin-4-yl)-3-(3-chloro-4-fluorophenyl)-1-((1,4,5,7-tetrahydropyrano[3,4-c]pyrazol-3-yl)methyl)urea], the IC50 under setting [1] was greater than 1100 nM.

As to `CC12CC(N(Cc3cc(C(F)(F)F)[nH]n3)C(=O)Nc3ccc(F)c(Cl)c3)(C1)C2` [Example 27, 3-(3-chloro-4-fluorophenyl)-1-(3-methylbicyclo[1.1.1]pentan-1-yl)-1-((5-(trifluoromethyl)-1H-pyrazol-3-yl)methyl)urea], under setting [1], the IC50 amounted to 160 nM.

`COc1ncc(N(Cc2cc(C(F)F)[nH]n2)C(=O)Nc2ccc(F)c(Cl)c2)cn1` [Example 84, 3-(3-chloro-4-fluorophenyl)-1-((5-(difluoromethyl)-1H-pyrazol-3-yl)methyl)-1-(2-methoxypyrimidin-5-yl)urea] yielded a half-inhibitory concentration (IC50) under setting [1] of 17 nM.

Compound `CCOCCc1c(CN(C(=O)Nc2ccc(F)c(Cl)c2)c2ccc(OC)nc2)n[nH]c1C(F)(F)F` [Example 85, 3-(3-chloro-4-fluorophenyl)-1-((4-(2-ethoxyethyl)-5-(trifluoromethyl)-1H-pyrazol-3-yl)methyl)-1-(6-methoxypyridin-3-yl)urea] returned an IC50 under setting [1] of 230 nM.

Consider `COc1ccc(N(Cc2n[nH]c(C(F)(F)F)c2CCO)C(=O)Nc2ccc(F)c(Cl)c2)cn1` [Example 86, 3-(3-chloro-4-fluorophenyl)-1-((4-(2-hydroxyethyl)-5-(trifluoromethyl)-1H-pyrazol-3-yl)methyl)-1-(6-methoxypyridin-3-yl)urea], for which, under setting [1], inhibition was half-maximal at 16 nM (IC50).

One may read the IC50 as the concentration that gives 50% inhibition.
